Here are results for five compounds from patent US4063014A, “4"-O-sulfonyl erythromycin-9-O-oxime derivatives” (Abbott Laboratories, priority 1975, dated 1977).

Each structure is given as a SMILES string.

In this experiment the test system is S.aureus (Smith). In words: S.aureus (Smith) infection, oral medication. The experiment is classed as in vivo. Also on record: DOSAGE LEVELS 300 / DOSAGE LEVELS 150 / DOSAGE LEVELS 75 / DOSAGE LEVELS 37.5 / DOSAGE LEVELS 18.75: unit not given here. The conditions noted are these: for DOSAGE LEVELS 18.75: dosage level 18.75, infection 10-100 LD50, Rt-IP; for DOSAGE LEVELS 37.5: dosage level 37.5, infection 10-100 LD50, Rt-IP; for DOSAGE LEVELS 75: dosage level 75, infection 10-100 LD50, Rt-IP; for DOSAGE LEVELS 150: dosage level 150, infection 10-100 LD50, Rt-IP; for DOSAGE LEVELS 300: dosage level 300, infection 10-100 LD50, Rt-IP.

Turning to `CC[C@H]1OC(=O)[C@H](C)[C@@H](O[C@H]2C[C@@](C)(OC)[C@@H](OS(=O)(=O)CCNC(=O)CNC(=O)OCc3ccccc3)[C@H](C)O2)[C@H](C)[C@@H](O[C@@H]2O[C@H](C)C[C@H](N(C)C)[C@H]2O)[C@](C)(O)C[C@@H](C)C(=NOC)[C@H](C)[C@@H](O)[C@]1(C)O` [XII, 4"-O-[β-(N-Carbobenzyloxyglycyl)Amidoethyl]Sulfonyl Erythromycin A-9-O-Methyloxime], the “DOSAGE LEVELS 18.75” value came to 20, the “DOSAGE LEVELS 37.5” value is on record as 0, the “DOSAGE LEVELS 75” value is on record as 0 and the “DOSAGE LEVELS 150” value amounted to 0. In addition, the “DOSAGE LEVELS 300” value is listed as 30. Further, under “Staphylococcus aureus, infection 10-100 LD50, Rt-IP, read-out: CD50 (the source's name)”, the ED50 is greater than 300 mg/kg.
In the case of `CC[C@H]1OC(=O)[C@H](C)[C@@H](O[C@H]2C[C@@](C)(OC)[C@@H](OS(=O)(=O)CCNS(=O)(=O)c3ccc([N+](=O)[O-])cc3)[C@H](C)O2)[C@H](C)[C@@H](O[C@@H]2O[C@H](C)C[C@H](N(C)C)[C@H]2O)[C@](C)(O)C[C@@H](C)C(=NOC)[C@H](C)[C@@H](O)[C@]1(C)O` [XVII, 4"-O-[β-(p-Nitrobenzenesulfonamido)Ethyl]Sulfonyl Erythromycin A-9-O-Methyloxime], the “DOSAGE LEVELS 18.75” value worked out at 0, the “DOSAGE LEVELS 37.5” value was determined as 10, the “DOSAGE LEVELS 75” value turned out to be 10 and the “DOSAGE LEVELS 150” value is given as 0. For the same compound, the “DOSAGE LEVELS 300” value is 80.
For the compound `CC[C@H]1OC(=O)[C@H](C)[C@@H](O[C@H]2C[C@@](C)(OC)[C@@H](OS(=O)(=O)CCNC(=S)Nc3ccccc3)[C@H](C)O2)[C@H](C)[C@@H](O[C@@H]2O[C@H](C)C[C@H](N(C)C)[C@H]2O)[C@](C)(O)C[C@@H](C)C(=NOC)[C@H](C)[C@@H](O)[C@]1(C)O` [Example V, 4"-O-[β-(3-Phenylthioureido)-1-Ethyl]sulfonyl Erythromycin-A-9-O-Methyloxime], the “DOSAGE LEVELS 18.75” value worked out at 0, the “DOSAGE LEVELS 37.5” value was 0, the “DOSAGE LEVELS 75” value was found to be 0 and the “DOSAGE LEVELS 150” value worked out at 20. Besides, the “DOSAGE LEVELS 300” value was 80.
Regarding `CC[C@H]1OC(=O)[C@H](C)[C@@H](O[C@H]2C[C@@](C)(OC)[C@@H](OS(=O)(=O)CCNC(=O)c3ccc([N+](=O)[O-])cc3)[C@H](C)O2)[C@H](C)[C@@H](O[C@@H]2O[C@H](C)C[C@H](N(C)C)[C@H]2O)[C@](C)(O)C[C@@H](C)C(=NOC)[C@H](C)[C@@H](O)[C@]1(C)O` [Example XV, 4"-O-[β-(p-Nitrobenzamido)ethyl]Sulfonyl Erythromycin A-9-O-Methyloxime], the “DOSAGE LEVELS 18.75” value was determined as 10, the “DOSAGE LEVELS 37.5” value is recorded as 10, the “DOSAGE LEVELS 75” value came out at 0 and the “DOSAGE LEVELS 150” value is listed as 0. Further, the “DOSAGE LEVELS 300” value is 60.
Turning to `CC[C@H]1OC(=O)[C@H](C)[C@@H](O[C@H]2C[C@@](C)(OC)[C@@H](OS(=O)(=O)CCNC(=O)Nc3ccccc3)[C@H](C)O2)[C@H](C)[C@@H](O[C@@H]2O[C@H](C)C[C@H](N(C)C)[C@H]2O)[C@](C)(O)C[C@@H](C)C(=NOC)[C@H](C)[C@@H](O)[C@]1(C)O` [VI, 4"-O-[β-(3-Phenylureido)-Ethyl]sulfonyl Erythromycin A-9-O-Methyloxime], the “DOSAGE LEVELS 18.75” value is recorded as 10, the “DOSAGE LEVELS 37.5” value was 20, the “DOSAGE LEVELS 75” value amounted to 20 and the “DOSAGE LEVELS 150” value is reported as 10. The “DOSAGE LEVELS 300” value is on record as 50.
